Among the test systems are A549; PC-3; U-251; NCI-H23; KM12; SK-MEL-5; OVCAR-5; SW-620; M14; SK-MEL-28; RXF 393; TK-10; NCI/ADR-RES; NCI-H522; HOP-62; Hs-578T; DU-145; SF-295; LOX IMVI; CCRF-CEM.
What all share (test): NCI anticancer screen, dose series, 48 h

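Interpolation was linear, between the two tested concentrations surrounding the appropriate level; five concentrations were tested over 48 hours in 96-well plates. GI50: concentration for 50% inhibition of growth.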 Calls of active or inactive are those of the source. No stated cut-off is given here; in the data, active = GI50 up to about 1.1 µM and inactive = higher.

`CCCC/C=C1/CCC(CN(C)C)C1=O` (configuration not stated): the GI50 with A549 was 6.58 µM (inactive); in the test with PC-3, 14.1 µM (inactive); with U-251, 1.97 µM (inactive); with NCI-H23 it was 3.41 µM (inactive); in the test on KM12, 0.673 µM (active); in the test with SK-MEL-5 it was 9.02 µM (inactive). The GI50 in the test on OVCAR-5 is 6.01 µM (inactive); with SW-620, 1.14 µM (inactive); in the test with M14, 1.71 µM (inactive); in the test with SK-MEL-28 it was 1.92 µM (inactive); in the test with RXF 393 it was 1.77 µM (inactive); with TK-10, 1.01 µM (active). The GI50 is 2.64 µM (inactive) with NCI/ADR-RES; 0.656 µM (active) with NCI-H522; 20 µM (inactive) in the test with HOP-62; 3.18 µM (inactive) in the test with Hs-578T; 15.6 µM (inactive) in the test on DU-145; 6.71 µM (inactive) in the test on SF-295. Besides, in the test on LOX IMVI, the GI50 is 1.39 µM (inactive).

On to `O=C(c1ccccc1)C1C(c2ccccc2[N+](=O)[O-])N1C1CCCCC1` (configuration not stated), for which the GI50 in the test on A549 was 16.6 µM (inactive); in the test with PC-3 it was 3.95 µM (inactive); in the test on U-251, 6.01 µM (inactive); in the test with NCI-H23, 16.4 µM (inactive); with KM12, 11.9 µM (inactive); in the test on SK-MEL-5, 11 µM (inactive). Also, the GI50 with OVCAR-5 is 17 µM (inactive); in the test with M14, 9.42 µM (inactive); in the test with SK-MEL-28 it was > 42.3 µM (inactive); in the test on RXF 393, 4.27 µM (inactive); in the test with TK-10 it was 2.74 µM (inactive); in the test on NCI/ADR-RES, 6.05 µM (inactive). Moreover, the GI50 in the test on NCI-H522 is 2.11 µM (inactive); with HOP-62 it was 15.1 µM (inactive); with Hs-578T, 10.3 µM (inactive); in the test with DU-145, 10.1 µM (inactive); with SF-295, 15.4 µM (inactive); in the test on LOX IMVI, 2.1 µM (inactive).

Consider `Cc1n[n+]([O-])c(C)cc1[N+](=O)[O-]`, for which the GI50 was 22 µM (inactive) in the test with A549; 23.8 µM (inactive) in the test on PC-3; 22.4 µM (inactive) in the test on U-251; 16 µM (inactive) with NCI-H23; 16.3 µM (inactive) with SK-MEL-5; 19.5 µM (inactive) with OVCAR-5. In addition, the GI50 is 1.36 µM (inactive) in the test with CCRF-CEM; 15 µM (inactive) with SW-620; 15.7 µM (inactive) with M14; 18 µM (inactive) with SK-MEL-28; 25.2 µM (inactive) in the test with RXF 393; 8.67 µM (inactive) with TK-10. Further, the GI50 in the test with NCI/ADR-RES is 20.6 µM (inactive); with NCI-H522, 12.3 µM (inactive); in the test on HOP-62, 19.5 µM (inactive); in the test with Hs-578T it was 28.6 µM (inactive); in the test with DU-145 it was 21.7 µM (inactive); in the test with LOX IMVI, 20.9 µM (inactive).

With `O=CC1C(=O)Nc2nc3ccccc3n2C1c1ccccc1` (configuration not stated), the GI50 was 23.3 µM (inactive) in the test with A549; 18.4 µM (inactive) in the test with PC-3; 14.4 µM (inactive) in the test with U-251; 19.2 µM (inactive) in the test with NCI-H23; 14.6 µM (inactive) in the test on KM12; 14.6 µM (inactive) in the test on SK-MEL-5. In addition, the GI50 was 25.2 µM (inactive) with OVCAR-5; 4.38 µM (inactive) in the test on CCRF-CEM; 17.8 µM (inactive) in the test on SW-620; 16 µM (inactive) with M14; 19.6 µM (inactive) in the test on SK-MEL-28; 0.183 µM (active) with RXF 393. Further, the GI50 with TK-10 is 28.6 µM (inactive); with NCI/ADR-RES it was 54.7 µM (inactive); in the test with NCI-H522 it was 12.8 µM (inactive); with HOP-62, 5.06 µM (inactive); in the test on Hs-578T it was 31.6 µM (inactive); in the test with DU-145, 12.7 µM (inactive). Besides, the GI50 in the test on SF-295 was 20.9 µM (inactive); in the test on LOX IMVI it was 11.1 µM (inactive).

For `O=C1/C(=C/c2ccc(Cl)cc2)N=C(c2ccccc2)N1C1Nc2cc3c(cc2S1)NC(N1C(=O)/C(=C/c2ccc(Cl)cc2)N=C1c1ccccc1)S3` (configuration not stated), the GI50 was 40.7 µM (inactive) with PC-3; 32.3 µM (inactive) in the test with U-251; > 100 µM (inactive) with NCI-H23; 54 µM (inactive) with KM12; 34.2 µM (inactive) with SK-MEL-5; > 100 µM (inactive) in the test with OVCAR-5. The GI50 in the test on CCRF-CEM is 11.5 µM (inactive); in the test on SW-620 it was 22 µM (inactive); in the test with M14, > 100 µM (inactive); in the test with SK-MEL-28 it was > 100 µM (inactive); in the test with RXF 393, 76.6 µM (inactive); with TK-10, > 100 µM (inactive). Besides, the GI50 was 63.8 µM (inactive) with NCI/ADR-RES; 18.7 µM (inactive) in the test on NCI-H522; 90.2 µM (inactive) with HOP-62; 35.2 µM (inactive) in the test with Hs-578T; 46.3 µM (inactive) in the test with DU-145; 73.5 µM (inactive) with SF-295. In the test with LOX IMVI, the GI50 is 31.7 µM (inactive).

Regarding `COc1ccc(/C=C2/C(=O)N(/C=C3\C(=O)Oc4ccccc4C3=O)/C(=N/C(C)=O)N2C)cc1OC`, the GI50 in the test with A549, with PC-3, with U-251, in the test on NCI-H23, with KM12 and in the test with SK-MEL-5 was > 100 µM (inactive) each time. The GI50 in the test on OVCAR-5, in the test with CCRF-CEM, with SW-620, with M14, in the test on SK-MEL-28 and with RXF 393 was > 100 µM (inactive) throughout. The GI50 in the test on NCI/ADR-RES, in the test with NCI-H522, in the test on HOP-62, with Hs-578T, with DU-145 and in the test on SF-295 was > 100 µM (inactive) throughout. For the same compound, the GI50 in the test with LOX IMVI is > 100 µM (inactive).

In the case of `c1cc2ccc3cc4ncccc4c4ccc(c1)c2c34`, the GI50 is 9.31 µM (inactive) in the test on A549; 33 µM (inactive) in the test on PC-3; 17.9 µM (inactive) with U-251; 27.5 µM (inactive) in the test with NCI-H23; 10.5 µM (inactive) in the test with KM12; 84.7 µM (inactive) in the test with OVCAR-5. Besides, the GI50 in the test with CCRF-CEM was 19.7 µM (inactive); in the test on SW-620, 17.5 µM (inactive); in the test with M14, 71.6 µM (inactive); with SK-MEL-28, 43.1 µM (inactive); with RXF 393, 46.8 µM (inactive); in the test on TK-10, 22.8 µM (inactive). The GI50 is 31.6 µM (inactive) in the test on NCI/ADR-RES; 16.7 µM (inactive) in the test on NCI-H522; 19.9 µM (inactive) in the test on HOP-62; > 100 µM (inactive) in the test on Hs-578T; 57.4 µM (inactive) in the test on DU-145; 17.1 µM (inactive) with SF-295. Moreover, the GI50 with LOX IMVI was 12.1 µM (inactive).

Turning to `CCOP(C)(=O)C(N)Cc1ccc(OC)c(OC)c1` (configuration not stated), the GI50 with A549, in the test on PC-3, in the test on U-251, in the test on NCI-H23, with SK-MEL-5 and in the test with CCRF-CEM was > 100 µM (inactive) throughout. Besides, the GI50 in the test on SW-620, in the test on M14, in the test on SK-MEL-28, in the test on RXF 393, with TK-10 and with NCI/ADR-RES was > 100 µM (inactive) each time. The GI50 in the test on NCI-H522, with HOP-62, in the test with Hs-578T, in the test on DU-145, with SF-295 and with LOX IMVI was > 100 µM (inactive) each time.

As to `Clc1cccc2[nH]ncc12`, the GI50 with A549, in the test with PC-3, in the test on U-251, with KM12, in the test on SK-MEL-5 and with OVCAR-5 was > 100 µM (inactive) each time. Further, the GI50 in the test on CCRF-CEM was > 100 µM (inactive); in the test on SW-620, > 100 µM (inactive); in the test on SK-MEL-28, > 100 µM (inactive); with RXF 393, 51.8 µM (inactive); with TK-10, > 100 µM (inactive); in the test on NCI/ADR-RES it was > 100 µM (inactive). Moreover, the GI50 is 26.5 µM (inactive) in the test on NCI-H522; > 100 µM (inactive) in the test with HOP-62; 76 µM (inactive) in the test on Hs-578T; > 100 µM (inactive) in the test on DU-145; > 100 µM (inactive) in the test on SF-295; 58.1 µM (inactive) with LOX IMVI.

Consider `COc1cc2c(c(OC)c1OC)-c1ccc(SC)c(=O)cc1[C@@H](OC(C)=O)CC2`, for which the GI50 with A549, in the test with PC-3, with U-251, with NCI-H23, in the test with KM12 and with SK-MEL-5 was < 0.01 µM (active) in each case. Moreover, the GI50 in the test with CCRF-CEM was < 0.01 µM (active); in the test on SW-620, < 0.01 µM (active); in the test with M14, < 0.01 µM (active); in the test with SK-MEL-28, < 0.01 µM (active); in the test with RXF 393, 0.885 µM (active); in the test with TK-10, 21.8 µM (inactive). Moreover, the GI50 with NCI/ADR-RES, in the test with NCI-H522, in the test with HOP-62, with Hs-578T, in the test with DU-145 and in the test on SF-295 was < 0.01 µM (active) each time. Further, in the test on LOX IMVI, the GI50 was < 0.01 µM (active).

Consider `CC[C@@]1(O)C(=O)OCc2c1cc1n(c2=O)Cc2cc3cc(O)ccc3nc2-1` [HYDROXYCAMPTOTHECIN], for which the GI50 was 0.0506 µM (active) in the test with A549; 0.084 µM (active) with PC-3; < 0.0075 µM (active) in the test with U-251; 0.0176 µM (active) in the test with NCI-H23; 0.047 µM (active) in the test on OVCAR-5; < 0.0075 µM (active) with CCRF-CEM. Also, the GI50 with M14 is 0.0336 µM (active); with RXF 393 it was 0.0236 µM (active); in the test on TK-10, 2.69 µM (inactive); in the test on NCI/ADR-RES, 0.0232 µM (active); in the test with NCI-H522, 0.0105 µM (active); in the test with HOP-62 it was < 0.0109 µM (active). The GI50 in the test with Hs-578T was 1.04 µM (active); with DU-145 it was 0.01 µM (active); in the test on LOX IMVI it was 0.0337 µM (active).

Source of the values: ChEMBL document CHEMBL1201862, “PubChem BioAssay data set” (2004).
